PubChem BioAssay (NCI)
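Each compound was tested at five concentrations against cells in 96-well plates for 48 hours. Definition used: TGI = concentration required for complete inhibition of growth.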

How the values were obtained:
Experiment in all cases: NCI-60 cell line screen, 48 h
[1] = tested on: RXF 393 renal
[2] = tested on: SK-MEL-2 melanoma
[3] = tested on: 786-0 renal
[4] = tested on: MDA-MB-231 breast
[5] = tested on: CAKI-1 renal
[6] = tested on: HCC-2998 colon
[7] = tested on: CCRF-CEM leukemia
[8] = tested on: NCI-H226 lung
[9] = tested on: COLO 205 colon
[10] = tested on: K-562 leukemia

| SMILES | TGI [1] [µM] | TGI [2] [µM] | TGI [3] [µM] | TGI [4] [µM] | TGI [5] [µM] | TGI [6] [µM] | TGI [7] [µM] | TGI [8] [µM] | TGI [9] [µM] | TGI [10] [µM] |
| --- | --- | --- | --- | --- | --- | --- | --- | --- | --- | --- |
| C=C(O)c1ccccc1C#Cc1ccccc1C(=O)OC | > 10 | > 10 | > 10 | > 10 | > 10 | > 10 | > 10 | > 10 | > 10 | > 10 |
| O=C(c1ccccc1)c1ccc(C(c2c(O)c3ccccc3oc2=O)c2c(O)c3ccccc3oc2=O)cc1 | > 69.2 | > 71.3 | 48.9 | > 71.4 | 25.3 | 50.4 | > 81.2 | 55 | > 73 | > 72.1 |
| Clc1ccc(-c2nn3c(CCCCCCCCc4nnc5sc(-c6ccc(Cl)cc6)nn45)nnc3s2)cc1 | > 62.4 | > 70.5 | 60 | > 100 | 46.1 | > 100 | 60.3 | > 100 | > 100 | > 100 |
| CC(=O)N=C(N=Nc1c(O)[nH]c2ccc(C)cc12)NC(C)=O | > 100 | > 100 | > 100 | > 100 | > 100 | > 100 | > 100 | > 100 | > 100 | > 100 |
| Cc1cc2nc3n[nH]c(N)c3nc2cc1C | > 100 | > 100 | > 100 | > 100 | > 100 | > 100 | > 100 | > 100 | > 100 | > 100 |
| CCOP(=O)(OCC)C(NC(=O)OCC(Cl)(Cl)Cl)n1nnc(C(=O)OC)c1C(=O)OC (stereo not given) | > 100 | > 100 | > 100 | > 100 | > 100 | > 100 | > 100 | > 100 | > 100 | > 100 |
| COc1c2c(c(OC)c3c1c(=O)c1ccccc1n3C)OCO2 | > 100 | > 100 | > 100 | > 31.6 | > 100 | > 100 | > 31.6 | > 100 | 53.9 | > 100 |
| Clc1ccc(N=C/C=C/Nc2ccc(Cl)cn2)nc1 | 34.9 | 29.2 | 18.3 | 16.2 | 25.1 | 0.922 | 9.41 | 31.2 | 25.3 | 23.2 |
| S=c1ssc2c3ssc(=S)c3n(Cc3ccccc3)c12 | 34.3 | > 100 | > 100 | > 100 | > 100 | > 100 | 58.2 | > 100 | > 100 | > 100 |
| CC1=C(/C=C/C(C)=C/C=C/C(C)=C/C(=O)OCC2OC(n3cc(F)c(=O)[nH]c3=O)CC2OC(=O)/C=C(C)/C=C/C=C(C)/C=C/C2=C(C)CCCC2(C)C)C(C)(C)CCC1 (stereo not given) | > 100 | > 100 | > 46.1 | > 86.8 | > 100 | 15 | > 28.8 | > 69.3 | > 60.1 | > 72.5 |
| CCC1(C)C=Cc2c(cc(OC)c3c(=O)c4ccccc4n(C)c23)O1 (stereo not given) | 5.52 | > 10 | > 10 | > 10 | 2.53 | > 10 | > 10 | > 10 | > 10 | > 10 |
| CC(=O)/C(C=Nc1c(C)n(C)n(-c2ccccc2)c1=O)=C(/C)O | > 100 | > 100 | > 100 | > 100 | > 100 | > 100 | > 100 | > 100 | > 100 | > 100 |
| c1ccc(N=C2c3ccccc3CN2c2ccccc2)cc1 | > 100 | > 100 | > 100 | > 100 | > 100 | > 100 | > 100 | > 100 | > 100 | > 100 |
| COc1ccc(OC)c(C2CCc3nc4nc(N)nc(N)c4cc3C2)c1 (stereo not given) | 7.45 | 4.35 | 6.91 | 5.4 | > 56.2 | 3.16 | 9.44 | 30.7 | 17.9 | 6.35 |
